Experimental data taken from paper PMC10508484, “Development and application of a PBPK modeling strategy to support antimalarial drug development” (CPT: Pharmacometrics & Systems Pharmacology, 2023).
“And” between values parts separate entries of the source, which are not always exact repeats. Equal values may be shown once. Read-outs that look alike come from different tables or passages of the source. Each block holds one compound with its values, some of them ahead of it.

Tests used:
[1] = lumefantrine: ACD labs value; ref Charman et al., 2020 1; cited from earlier work
[2] = cited from earlier work; for Cmax: read-out: Cmax Obs
[3] = cited from earlier work; for fu: PBPK input
[4] = 2020 1, cited from earlier work
[5] = measured (0.4 mg/mL protein where stated); ref Charman et al., 2020 1; cited from earlier work
[6] = Fraction unbound in human liver microsomes (fumic); settings: extrapolated from value measured at 0.4 mg/mL to 0.1 mg/mL, method of Austin et al., 2002
[7] = PBPK simulation of drug-drug interactions (Simcyp V19); design: species or system human; settings: for AUC ratios Sim/Obs: ratio of simulated to clinically observed AUC ratio
From the text: Here, we provide three example applications where the available PBPK models were used to address questions relating to DDI assessment. […] Additional simulation methods are provided in Appendix S1.
(§1) All simulations, including the ones performed for the applications, were run using Version 19 of the Simcyp population-based PBPK simulator (Simcyp (Certara), Sheffield, UK) and unless stated otherwise, input parameters for all drugs are as specified (Supplementary Information Table S1). All simulations were run using ten virtual trials that were matched as closely as possible to the clinical study volunteers in terms of the number of subjects, their age, the proportion of males/females and according to the same study design.

in vitro = settings: human, plasma
[8] = cited from earlier work
[9] = cited from earlier work; for CL PO: clinically observed oral (in vivo) clearance, pyronaridine: blood, ref amodiaquine Winstanley et al., DEAQ Akande et al., 2015 8, Scarsi et al., 2014 35, Tarning et al., 2012 36, Orrell et al., 2008 37, DHA Na-Bangchang et al., 2004 42, lumefantrine Lefevre et al., 2002 52, Hoglund et al., 2015 53, mefloquine Charles et al., 2007 56, pyronaridine Jittama
[10] = In vitro flags for victim and perpetrator properties conferring DDI liability; format: in vitro ADME, human; settings: in vitro flag, mainly based on in vitro determinations
[11] = ref Charman et al., 2020 1; cited from earlier work
Caco-2 cells = settings: calibrated against propranolol; plasma as medium for atovaquone and piperaquine; ref Charman et al., 2020 1; cited from earlier work
[12] = Hepatic / HLM intrinsic clearance, enzyme not defined; settings: for fm additional / undefined metabolism: human
CYP3A4 = CYP3A4 (Homo sapiens, UniProt P08684)
Sequence of CYP3A4 (P08684 whole entry): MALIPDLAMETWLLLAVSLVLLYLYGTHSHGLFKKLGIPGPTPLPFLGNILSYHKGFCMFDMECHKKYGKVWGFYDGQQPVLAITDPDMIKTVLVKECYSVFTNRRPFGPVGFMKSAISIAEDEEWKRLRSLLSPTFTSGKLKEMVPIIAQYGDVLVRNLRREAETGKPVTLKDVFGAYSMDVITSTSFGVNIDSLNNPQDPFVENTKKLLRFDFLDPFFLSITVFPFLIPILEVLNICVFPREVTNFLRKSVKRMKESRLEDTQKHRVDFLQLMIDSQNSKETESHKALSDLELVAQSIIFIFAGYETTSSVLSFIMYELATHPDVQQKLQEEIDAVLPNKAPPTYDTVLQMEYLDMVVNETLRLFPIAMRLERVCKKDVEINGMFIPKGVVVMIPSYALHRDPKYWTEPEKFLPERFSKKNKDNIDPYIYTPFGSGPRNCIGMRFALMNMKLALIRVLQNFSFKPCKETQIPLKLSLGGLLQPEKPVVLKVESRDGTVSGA
From the text: (§2) In nearly all cases the fraction of systemic elimination metabolised by a given enzyme (fm) determined in vitro was unavailable in the literature.

CYP2C19 = CYP2C19 (Homo sapiens, UniProt P33261); test: Metabolism by CYP2C19 (CLint, fm); format: in vitro ADME
Sequence of CYP2C19 (P33261 whole entry): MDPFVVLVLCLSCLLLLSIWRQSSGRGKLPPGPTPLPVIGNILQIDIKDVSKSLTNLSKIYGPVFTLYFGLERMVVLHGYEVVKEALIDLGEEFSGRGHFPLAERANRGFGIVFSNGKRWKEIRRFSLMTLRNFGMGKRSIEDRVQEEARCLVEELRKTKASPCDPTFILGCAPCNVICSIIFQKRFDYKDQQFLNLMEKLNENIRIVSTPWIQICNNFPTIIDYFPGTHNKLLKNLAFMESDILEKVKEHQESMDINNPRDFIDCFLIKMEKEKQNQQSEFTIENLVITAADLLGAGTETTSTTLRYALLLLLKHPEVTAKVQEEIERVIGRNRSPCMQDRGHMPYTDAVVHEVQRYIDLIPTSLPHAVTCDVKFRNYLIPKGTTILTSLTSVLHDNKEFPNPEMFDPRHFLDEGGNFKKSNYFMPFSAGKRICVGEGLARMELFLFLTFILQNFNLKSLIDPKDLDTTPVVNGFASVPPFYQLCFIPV
From the text: as §2

[13] = PBPK simulation of plasma Cmax and AUC (Simcyp V19); design: species or system human; settings: single oral dose named in the block
From the text: as §1
The available clinical PK data for performance verification of simulations was largely in healthy volunteers of either Caucasian or South-East Asian (Thai or Vietnamese) descent. For Caucasian subjects the default Sim-Healthy Volunteers virtual population was used without modification. […] The case study simulations presented in this paper used the Sim-Healthy Volunteers virtual population.

[14] = Blood to plasma ratio (B:P); settings: PBPK input; 0.55 = no uptake into RBC for a haematocrit of 45%
[15] = 200 mg SD, 0-inf, ref Wattanagoon et al., 1987 17
[16] = DDI of the respective line of Table S3
[17] = ratio of simulated to clinically observed Cmax ratio, DDI of the respective line of Table S3
[18] = amodiaquine 600 mg SD (Day 6) + trimethoprim 160 mg QD (7 Days), ref Akande et al., 2015 1
[19] = PBPK input, ref amodiaquine, DEAQ Winstanley et al., 1987 9, atovaquone Rolan et al., 1997 14, azithromycin Lalak et al., 1993 23, carboxyprimaquine Mihaly et al., 1985 26, chloroquine Walker et al., 1987 29, DHA EMA Website, 44, doxycycline Raghuram et al., 1982 48, Nguyen et al., 1989 49, mefloquine Schwartz et al., 1982 57, primaquine White, 1985 62, proguanil Jeppesen et al., 1997 34, pyrimeth
[20] = 1987 9, proguanil Jeppesen et al., 1997 34
[21] = ref atovaquone Mepron Prescribing Information, 2008, Nixon et al., 2013 13, Rolan et al., 1997 14, azithromycin Foulds et al., 1990 20, chloroquine Ofori-Adjei et al., 1986 27, Walker et al., 1983 28, DHA Batty et al., 2004 41 (healthy volunteers), lumefantrine CDER submission 22-269, proguanil Wattanagoon et al., 1987 63, tafenoquine Dow et al., 2020 84
[22] = from observed differences in metabolite formation, Jeppesen et al., 1997

fumic [6]: 0.911
SMILES: CC1(C)N=C(N)N=C(N)N1c1ccc(Cl)cc1 [Cycloguanil, cycloguanil]
Log D pH 7.4 [1]: 1.1
AUC Obs ([2]; 200 mg QD (Day 14) EM, 0-24 h, ref Helsby et al., 1993 19): 3170 ng·h/mL
AUC Obs ([2]; 200 mg QD (Day 14) PM, 0-24 h, ref Helsby et al., 1993 19): 1190 ng·h/mL
AUC Obs ([2]; 200 mg SD EM, 0-72 h, ref Helsby et al., 1993 19): 2350 ng·h/mL
AUC Obs ([2]; 200 mg SD PM, 0-72 h, ref Helsby et al., 1993 19): 983 ng·h/mL
AUC Obs [2, 15]: 661 ng·h/mL
Cmax Obs ([2]; 200 mg SD, ref Wattanagoon et al., 1987 17): 41 ng/mL
fu ([3]; ref Charman et al., 2020 1): 0.75
B:P ([4]; ref Charman et al.): 0.71
fumic [5]: 0.72

AUC ratios Sim/Obs [7, 16]: 0.89
Cmax ratios Sim/Obs [7, 17]: 1.00
fraction unbound (in vitro): 0.26
SMILES: CCNCc1cc(Nc2ccnc3cc(Cl)ccc23)ccc1O [DEAQ, desethylamodiaquine]
AUC Obs ([2]; 600 mg QD (Day 3), 0-96 h, ref Scarsi et al., 2014 1): 14571 ng·h/mL
Cmax Obs ([2]; 600 mg QD (Day 3), ref Scarsi et al., 2014 1): 495 ng/mL
AUC ratio Obs [8, 18]: 0.874
Cmax ratio Obs [8, 18]: 0.75
Main binding protein ([3]; ref amodiaquine, DEAQ Hietala, 2009 2, atovaquone Nixon et al., 2013 13, DHA Batty et al., 2004 41, mefloquine, tafenoquine (also AGP) Zsila et al., 2008 54): AGP
B:P ([4]; PBPK input, ref artemether Colussi et al., 1999 11, atovaquone Rolan et al., 1997 14, Beerahee, 1999 16, Charman et al., azithromycin Pene Dumitrescu et al., 2013 21, DEAQ Winstanley et al., 1987 9, proguanil weighted mean Helsby et al., 1993 61, Wattanagoon et al., 1987 63): 3
CL renal [9, 19]: 1.4 L/h
CL PO [9, 20]: 32 L/h

SMILES: O=C1C(O)=C([C@H]2CC[C@H](c3ccc(Cl)cc3)CC2)C(=O)c2ccccc21 [Atovaquone, atovaquone]
Risk as a perpetrator [10]: BCRP inhibitor
Risk as a victim [10]: Cleared by biliary excretion
AUC Obs ([2]; 250 mg QD, 0-24 h, ref Thapar et al., 2002 10): 254 µM·h
AUC Obs ([2]; 250 mg SD, 0-inf, ref Thapar et al., 2002 10): 295 µM·h
AUC Obs ([2]; 500 mg SD, AUC window Unknown, ref Rolan et al., 1994 9): 288000 ng·h/mL
Cmax Obs ([2]; 500 mg SD, ref Rolan et al., 1994 9): 4400 ng/mL
Cmax ([2]; 250 mg QD, ref Thapar et al., 2002 10): 13.8 µM
Cmax ([2]; 250 mg SD, ref Thapar et al., 2002 10): 3.7 µM
fu [3, 21]: 0.001
pKa(s) [11]: 4.28
Caco-2 (Papp A-B) (Caco-2 cells): 300 10-6 cm/s
CL IV ([9]; clinically observed, ref atovaquone Lavelle et al., 1994 17, chloroquine Walker et al., 1987 29, Gustafsson et al., 1983 30, doxycycline Raghuram et al., 1982 48, Nguyen et al., 1989 49, primaquine Mihaly et al., 1985 26, quinine White et al., 1983 77, Paintaud et al., 1993 78): 0.62 L/h
CL renal ([9]; in vivo): 0 L/h
fe (fraction excreted unchanged in urine) ([9]; in vivo): < 0.6%

AUC ratios Sim/Obs [7, 16]: 1.01 and 0.80
Risk as a perpetrator [10]: CYP2D6 inhibitor
Risk as a victim [10]: Substrate of CYP2C19 and CYP3A4
fm additional / undefined metabolism [12]: 25%
Additional Undefined metabolism ([12]; retrograde calculations): 13.46 µL/min/pmol
CLint CYP3A4 formation of cycloguanil (CYP3A4): 0.013 µL/min/pmol
fmCYP3A4 (CYP3A4): 3%
fmCYP2C19 (CYP2C19; fraction metabolised used in the PBPK model (proguanil: total, all routes)): 36%
fmCYP2C19, additional (CYP2C19; [22]): 9%
fmCYP2C19, formation of CPBG (CYP2C19; [22]): 8%
fmCYP2C19, formation of cycloguanil (CYP2C19; [22]): 17%
CLint CYP2C19 - additional (CYP2C19; retrograde calculations): 1.25 µL/min/pmol
CLint CYP2C19-mediated formation of 4-Chlorphenylbiguanide (CPBG) (CYP2C19; retrograde calculations): 1.07 µL/min/pmol
CLint CYP2C19-mediated formation of Cycloguanil (CYP2C19; retrograde calculations from CL PO): 2.23 µL/min/pmol
fumic [6]: 0.66
SMILES: [H]/N=C(\N/C(=N/[H])Nc1ccc(Cl)cc1)NC(C)C [Proguanil, proguanil]
Cmax Obs ([2]; 200 mg QD (Day 14) EM, ref Helsby et al., 1993 19): 190 ng/mL
Cmax Obs ([2]; 200 mg QD (Day 14) PM, ref Helsby et al., 1993 19): 338 ng/mL
AUC Obs ([2]; 200 mg SD EM, 0-inf, ref Helsby et al., 1990 18): 3396 ng·h/mL
Cmax Obs ([2]; 200 mg SD EM, ref Helsby et al., 1993 19): 209 ng/mL
AUC Obs ([2]; 200 mg SD PM, 0-inf, ref Helsby et al., 1990 18): 6563 ng·h/mL
Cmax Obs ([2]; 200 mg SD PM, ref Helsby et al., 1993 19): 273 ng/mL
Cmax Obs ([2]; 200 mg SD, dose corrected to free base for simulations, ref Wattanagoon et al., 1987 17): 170 ng/mL
AUC Obs [2, 15]: 2975 ng·h/mL
Caco-2 (Papp A-B) (Caco-2 cells): 3.5 10-6 cm/s
CL renal [9, 19]: 26.64 L/h
CL PO [9, 20]: 86.4 L/h
fe (fraction excreted unchanged in urine) ([9]; in vivo): 36%

SMILES: CCCCN(CCCC)CC(O)c1cc(Cl)cc2c1-c1ccc(Cl)cc1/C2=C/c1ccc(Cl)cc1 (stereo not drawn) [Lumefantrine, lumefantrine]
predicted AUC0-inf as % of the observed value [13]: approximately 66%
predicted Cmax as % of the observed value [13]: approximately 62%
Cmax ratios Sim/Obs ([7]; Day 7 concentrations, 480 mg BID (Day 22-24) + rifampicin 600 mg QD (Days 1-46)): 0.23
Cmax ratios Sim/Obs [7, 17]: 0.61 and 0.92 and 1.08 and 1.06
Risk as a perpetrator [10]: CYP2D6 inhibitor
Risk as a victim [10]: Substrate of CYP3A4
fm additional / undefined metabolism [12]: 60%
fmCYP3A4 (CYP3A4): 40%
CLint CYP3A4 (CYP3A4; microsomes): 0.9 µL/min/pmol
AUC Obs ([2]; 480 mg BID (Day 3) PM, 60-324 h, ref Huang et al., 2012 8): 418000 ng·h/mL
AUC Obs ([2]; 480 mg BID (Day 3) PM, 62-480 h, ref Lefevre et al., 2002 7): 383000 ng·h/mL
Cmax Obs ([2]; 480 mg BID (Day 3) PM, ref Huang et al., 2012 8): 11600 ng/mL
Cmax Obs ([2]; 480 mg BID (Day 3) PM, ref Lefevre et al., 2002 7): 10000 ng/mL
AUC Obs ([2]; 480 mg SD, 0-264 h, ref Lefevre et al., 2013 6): 236000 ng·h/mL
AUC Obs ([2]; 480 mg SD, 0-inf, ref Lefevre et al., 2002 5): 207000 ng·h/mL
Cmax Obs ([2]; 480 mg SD, ref Lefevre et al., 2002 5): 7910 ng/mL
Cmax Obs ([2]; 480 mg SD, ref Lefevre et al., 2013 6): 8920 ng/mL
AUC reduction ([8]; human, in vivo): 56%
fu [3, 21]: 0.003
CL PO [9, 20]: 3.5 L/h
B:P [14]: 0.55
